Experimental data reported in patent publication US9902761B2, “Polypeptides, nucleic acids and uses thereof” (AGENCY FOR SCIENCE, TECHNOLOGY AND RESEARCH, priority 2013, dated 2018).
Entries after “also recorded” stand apart in the source; their conditions may differ.

What was measured:
[1] = system: PRAS40; experiment: SILAC-based phosphoproteomic analysis of hESCs pulsed for 10 minutes; type: cell-based, human; conditions: 10 minute pulse, 5 uM
[2] = system: hESCs; experiment: directed endoderm differentiation of hESCs, SOX17+ cell count; type: cell-based, human; conditions: 2.5 uM ELA peptide up to day 3, count on day 5
Protocol: Shef4TetR5-shELA and Shef4TetR5-shβ2M cells were cultured in the presence (shELA and shβ2M respectively) or absence (Control) of 20 ng/ml doxycycline for 1 passage (4 days) and dissociated with Accutase. […] 24 hours later, the media was changed to Endo differentiation media 1 [RPMI 1640 (Gibco), 1× B-27 supplement (Invitrogen), 50 ng/ml of Activin A (R&D Systems), 25 ng/ml BMP4 (R&D Systems) and 50 ng/ml bFGF (Invitrogen)] for 3 days. On day 3, the media was changed to Endo differentiation media 2 (RPMI 1640, B27, 50 ng/ml Activin) for 2 more days of culture. Rescue experiments were performed by adding 2.5 uM of ELA peptide to Shef4TetR5-shELA concurrently with doxycycline up to day 3, when the ELA peptide is no longer necessary as judged by downregulation of endogenous ELA.
On day 5, cells were fixed with 4% paraformaldehyde and stained with α SOX17 (AF1924, R&D Systems) and DAPI. For each well, three different randomly selected fields were imaged and the number of nuclei staining positive of SOXI 7 and DAPI were counted using a custom macro in ImageJ. A minimum of two wells per condition was used for each experiment, and a minimum of two independent experiments were performed to generate the results.

[3] = system: human chondrosarcoma cell line; experiment: growth and survival effect of recombinant ELA on chondrosarcoma cells; type: cell-based
Protocol: (§1) Primary human fibroblasts, SW1353 chondrosarcoma (ATCC) and NTERA2 hECs (a gift from Barbara Knowles and Davor Solter) were grown in Dulbecco's modified Eagle's medium (DMEM) with 10% FBS (Hyclone), 2 mM GlutaMAX™ (Invitrogen) and 1 mM sodium pyruvate. For xCELLigence real time growth assays, 4000 cells were plated per well of an E-plate (ACEA Biosciences) with media changes every 48 hours. […] Cell cycle studies were performed with Click-iT EDU staining kit (Invitrogen) and by performing a double thymidine block (2.5 mM thymidine; 16 hour block, 8 hour release, 16 hour block) followed by DAPI staining for DNA content at the indicated times following release.

[4] = heart failure, APELIN experiments repeated with ELABELA; conditions: in vivo
Excerpt: Nature 2012 Aug. […] J Clin Invest. 2013 Nov. 1.

[5] = target: T1, CXCR4 (Homo sapiens, UniProt P61073); experiment: PathHunter β-Arrestin CXCR4 assay, antagonist mode with SDF-1; type: cell-based; conditions: SDF-1 at EC80 concentration
T1 sequence (P61073 whole entry, the tested form may be a part): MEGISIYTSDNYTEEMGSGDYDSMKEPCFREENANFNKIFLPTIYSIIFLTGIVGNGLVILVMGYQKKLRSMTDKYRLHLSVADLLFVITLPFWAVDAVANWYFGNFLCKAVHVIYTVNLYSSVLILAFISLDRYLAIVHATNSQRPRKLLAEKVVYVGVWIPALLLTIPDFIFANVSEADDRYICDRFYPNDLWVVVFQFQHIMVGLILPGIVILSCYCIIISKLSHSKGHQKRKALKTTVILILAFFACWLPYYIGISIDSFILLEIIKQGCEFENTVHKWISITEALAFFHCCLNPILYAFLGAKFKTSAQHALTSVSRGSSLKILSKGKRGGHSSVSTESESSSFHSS
Protocol: (§2) To detect activation of CXCR4 by ELA or SDF-1, recombinant ELA or SDF-1 were added in increasing concentrations for 90-180 minutes to cells stably expressing CXCR4 coupled to a downstream reporter. β-Arrestin recruitment was measured using the PathHunter® β-Arrestin CXCR4 assay (DiscoveRx). Interaction of CXCR4 with Arrestin was detected by Enzyme Fragment Complementation (EFC) between two complementary domains of β-galactosidase (β-Gal), one fused to CXCR4 and the other fused to β-Arrestin. β-Arrestin recruitment to CXCR4 results in complementation of the two domains to generate β-Gal activity. % Ac ? vity=100%×(mean RLU of test sample−mean RLU of vehicle control)/(mean MAX control ligand−mean RLU of vehicle control). To detect antagonism of SDF-1 by ELA, the assay was run in antagonist mode by measuring the EC50 of ELA in the presence of SDF-1 at EC80 concentration. To detect synergism between ELA and SDF-1, the assay was run in positive allosteric mode by measuring the EC50 of ELA in the presence of SDF-1 at EC20 concentration.

[6] = system: hESCs; experiment: stress-induced apoptosis of hESCs by ActinomycinD; type: cell-based, human
Protocol: To induce apoptosis, hESCs were treated with the indicated doses of ActinomycinD (Sigma) or ionizing radiation followed by Aqueous One Cell Titer (Promega) or CASPASE GLO3/7 (Promega) assays 12 hours post-treatment.

[7] = system: hESCs; experiment: uptake of FITC-labeled recombinant peptide by hESCs (immunofluorescence); type: cell-based, human
[8] = target: T1, CXCR4; experiment: PathHunter β-Arrestin CXCR4 assay, activation; type: cell-based; conditions: β-Arrestin recruitment
Protocol: as §2

[9] = system: hESCs; experiment: xCELLigence real time growth assay, cell counts and colony size of hESCs; type: cell-based, human
Protocol: Feeder-free hESCs were cultured in clumps in mTSER1 (Stem Cell Technologies) on Matrigel (BD 354277).
hESCs were dissociated into single cells using Accutase (Stem Cell Technologies) and plated in the presence of 10 μM Y-27632 (ROCK inhibitor) for 12 hours (Watanabe et al., 2007).
For xCELLigence real time growth assays, 4000 cells were plated per well of an E-plate (ACEA Biosciences) with media changes every 48 hours.
Recombinant ELA was added at 2.5 uM (or 10 μg/ml). Cell cycle studies were performed with Click-iT EDU staining kit (Invitrogen) and by performing a double thymidine block (2.5 mM thymidine; 16 hour block, 8 hour release, 16 hour block) followed by DAPI staining for DNA content at the indicated times following release.

[10] = system: primary human fibroblasts; experiment: growth and survival effect of recombinant ELA on primary fibroblasts; type: cell-based
Protocol: as §1

[11] = erectile dysfunction, APELIN experiments repeated with ELABELA; conditions: in vivo
Excerpt: J Sex Med. 2013 Apr. 11. doi: 10.11 l/jsm.12158.

[12] = hypertension, APELIN experiments repeated with ELABELA; conditions: in vivo
Excerpt: Regulatory Peptides. 2001; 99(2-3):87-92. • Cheng X, Cheng X S, Pang C C. […] European Journal of Pharmacology. […] Journal of the American College of Cardiology. 2008; 52(11):908-913.

[13] = pulmonary arterial hypertension, APELIN experiments repeated with ELABELA; conditions: in vivo
Excerpt: Am J Physiol Heart Circ Physiol 2009; 296:H2007-14.

## QRPVNLTMRRKLRKHNCLQRRCMPLHSRVPFP [ELA]
[1]
  phosphopeptide LNpTSDFQK derived from PRAS40: Among the top phosphopeptides activated by ELA
[2]
  rescue of SOX17+ endoderm differentiation of shELA hESCs: entirely rescued
[3]
  activity of recombinant ELA on human chondrosarcoma cell line: exerted activity only on hESCs cultures and no other differentiated cell types
[4]
  protection against heart failure: able to provide protection against heart failure
[5]
  antagonism of SDF1-mediated CXCR4 activation: preventing SDF1-mediated CXCR4 activation
[6]
  activated CASPASE3/7 and CASPASE 9 after ActinomycinD: entirely suppressed
[6]; nanomolar concentrations of ActinomycinD
  resistance or sensitivity to ActinomycinD: conferred significant resistance to control hESCs and completely rescued shELA hESCs
[7]
  uptake by hESCs: rapidly up-taken by hESCs
[8]
  activation of CXCR4: cannot activate CXCR4
[9]; addition of recombinant peptide to shELA hESCs
  rescue of the growth of shELA hESCs: entirely rescued to normal levels
[9]; hESCs
  concentration range in which the recombinant peptide is bioactive: bioactive only in the μM range; also recorded: works in the μM range
[10]
  activity of recombinant ELA on primary human fibroblasts: exerted activity only on hESCs cultures and no other differentiated cell types
[11]
  erectile function: significant restoration of erectile function
[12]
  blood pressure: causes a reduction in blood pressure
[13]
  symptoms of pulmonary arterial hypertension: alleviates symptoms of pulmonary arterial hypertension
